Results published in paper PMC7180948, “New Insights into 4-Anilinoquinazolines as Inhibitors of Cardiac Troponin I–Interacting Kinase (TNNi3K)” (Molecules, 2020).

Tests used:
Experiment in all cases: biochemical
Parameters in all cases: KINOMEscan competition binding panel (Eurofins DiscoverX), single concentration, % inhibition
Conditions in all cases: read-out: 7 at 1 µM % inhibition
EGFR(L747-T751del,Sins) = EGFR(L747-T751del,Sins) (Homo sapiens, UniProt P00533, DEL747-750/T751S)
Procedure, shortened: (§1)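 Binding was profiled in the KINOMEscan panel of over 400 human kinases, with each compound tested at a single concentration of 1 µM to map selectivity.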

NEK9 = NEK9 (Homo sapiens, UniProt Q8TD19)
Procedure, shortened: as §1

NDR1 = target: T1, NDR1 (Homo sapiens, UniProt Q15208)
T1 construct: gene STK38
Procedure, shortened: as §1

MKK7 = target: T2, MKK7 (Homo sapiens, UniProt O14733)
T2 construct: gene MAP2K7
Procedure, shortened: as §1

[1] = target: T3, RSK2(Kin.Dom.1-N-terminal) (Homo sapiens, UniProt P51812)
T3 construct: gene RPS6KA3; Kin.Dom.1-N-terminal
Procedure, shortened: as §1

SRPK2 = SRPK2 (Homo sapiens, UniProt P78362)
Procedure, shortened: as §1

[2] = target: T4, RSK1(Kin.Dom.1-N-terminal) (Homo sapiens, UniProt Q15418)
T4 construct: gene RPS6KA1; Kin.Dom.1-N-terminal
Procedure, shortened: as §1

PHKG2 = PHKG2 (Homo sapiens, UniProt P15735)
Procedure, shortened: as §1

PRKD1 = PRKD1 (Homo sapiens, UniProt Q15139)
Procedure, shortened: as §1

STK35 = STK35 (Homo sapiens, UniProt Q8TDR2)
Procedure, shortened: as §1

SGK3 = SGK3 (Homo sapiens, UniProt Q96BR1)
Procedure, shortened: as §1

MRCKA = target: T5, MRCKA (Homo sapiens, UniProt Q5VT25)
T5 construct: gene CDC42BPA
Procedure, shortened: as §1

ABL2 = ABL2 (Homo sapiens, UniProt P42684)
Procedure, shortened: as §1

[3] = target: T6, RSK4(Kin.Dom.2-C-terminal) (Homo sapiens, UniProt Q9UK32)
T6 construct: gene RPS6KA6; Kin.Dom.2-C-terminal
Procedure, shortened: as §1

EPHB1 = EPHB1 (Homo sapiens, UniProt P54762)
Procedure, shortened: as §1

EGFR(T790M) = EGFR(T790M) (Homo sapiens, UniProt P00533, T790M)
Procedure, shortened: as §1

CAMK4 = CAMK4 (Homo sapiens, UniProt Q16566)
Procedure, shortened: as §1

KIT(L576P) = KIT(L576P) (Homo sapiens, UniProt P10721, L576P)
Procedure, shortened: as §1

CDC2L2 = target: T7, CDC2L2 (Homo sapiens, UniProt Q9UQ88)
T7 construct: gene CDK11A
Procedure, shortened: as §1

TTK = TTK (Homo sapiens, UniProt P33981)
Procedure, shortened: as §1

MEK1 = target: T8, MEK1 (Homo sapiens, UniProt Q02750)
T8 construct: gene MAP2K1
Procedure, shortened: as §1

NEK10 = NEK10 (Homo sapiens, UniProt Q6ZWH5)
Procedure, shortened: as §1

DMPK2 = target: T9, DMPK2 (Homo sapiens, UniProt Q6DT37)
T9 construct: gene CDC42BPG
Procedure, shortened: as §1

T3 sequence (P51812 whole entry): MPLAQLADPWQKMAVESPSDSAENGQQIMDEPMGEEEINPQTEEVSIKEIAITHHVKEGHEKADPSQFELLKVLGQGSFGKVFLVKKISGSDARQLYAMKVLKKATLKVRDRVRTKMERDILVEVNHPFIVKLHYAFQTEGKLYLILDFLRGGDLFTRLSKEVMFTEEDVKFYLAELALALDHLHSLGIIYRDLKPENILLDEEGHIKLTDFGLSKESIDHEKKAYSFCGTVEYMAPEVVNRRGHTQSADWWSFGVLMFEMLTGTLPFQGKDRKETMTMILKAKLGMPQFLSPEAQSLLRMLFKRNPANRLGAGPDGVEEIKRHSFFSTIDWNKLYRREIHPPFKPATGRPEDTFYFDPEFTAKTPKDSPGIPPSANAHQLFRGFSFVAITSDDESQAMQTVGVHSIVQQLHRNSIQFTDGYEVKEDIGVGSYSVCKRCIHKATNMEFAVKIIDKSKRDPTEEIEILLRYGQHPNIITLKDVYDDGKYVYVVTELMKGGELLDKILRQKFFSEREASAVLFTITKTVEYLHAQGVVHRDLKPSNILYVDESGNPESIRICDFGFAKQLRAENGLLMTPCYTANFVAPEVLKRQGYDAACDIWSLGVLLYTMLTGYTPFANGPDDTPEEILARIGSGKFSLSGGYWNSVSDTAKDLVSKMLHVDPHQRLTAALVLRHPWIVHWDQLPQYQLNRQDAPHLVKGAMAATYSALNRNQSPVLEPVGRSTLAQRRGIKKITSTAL
Sequence of STK35 (Q8TDR2 whole entry): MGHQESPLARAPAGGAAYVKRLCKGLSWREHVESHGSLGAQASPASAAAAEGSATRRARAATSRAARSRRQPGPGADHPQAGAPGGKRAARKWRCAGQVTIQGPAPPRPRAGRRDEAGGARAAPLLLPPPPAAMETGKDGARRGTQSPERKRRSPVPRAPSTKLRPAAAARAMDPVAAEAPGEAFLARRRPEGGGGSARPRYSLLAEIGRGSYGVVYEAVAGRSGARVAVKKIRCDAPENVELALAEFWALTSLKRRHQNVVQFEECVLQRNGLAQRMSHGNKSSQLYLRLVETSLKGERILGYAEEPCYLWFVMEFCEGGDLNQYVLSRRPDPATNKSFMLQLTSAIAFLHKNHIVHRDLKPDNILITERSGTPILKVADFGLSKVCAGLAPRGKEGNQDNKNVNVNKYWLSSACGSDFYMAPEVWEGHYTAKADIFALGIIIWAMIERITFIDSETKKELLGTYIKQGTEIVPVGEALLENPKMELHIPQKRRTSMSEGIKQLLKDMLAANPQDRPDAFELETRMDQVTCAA
Sequence of NEK10 (Q6ZWH5 whole entry): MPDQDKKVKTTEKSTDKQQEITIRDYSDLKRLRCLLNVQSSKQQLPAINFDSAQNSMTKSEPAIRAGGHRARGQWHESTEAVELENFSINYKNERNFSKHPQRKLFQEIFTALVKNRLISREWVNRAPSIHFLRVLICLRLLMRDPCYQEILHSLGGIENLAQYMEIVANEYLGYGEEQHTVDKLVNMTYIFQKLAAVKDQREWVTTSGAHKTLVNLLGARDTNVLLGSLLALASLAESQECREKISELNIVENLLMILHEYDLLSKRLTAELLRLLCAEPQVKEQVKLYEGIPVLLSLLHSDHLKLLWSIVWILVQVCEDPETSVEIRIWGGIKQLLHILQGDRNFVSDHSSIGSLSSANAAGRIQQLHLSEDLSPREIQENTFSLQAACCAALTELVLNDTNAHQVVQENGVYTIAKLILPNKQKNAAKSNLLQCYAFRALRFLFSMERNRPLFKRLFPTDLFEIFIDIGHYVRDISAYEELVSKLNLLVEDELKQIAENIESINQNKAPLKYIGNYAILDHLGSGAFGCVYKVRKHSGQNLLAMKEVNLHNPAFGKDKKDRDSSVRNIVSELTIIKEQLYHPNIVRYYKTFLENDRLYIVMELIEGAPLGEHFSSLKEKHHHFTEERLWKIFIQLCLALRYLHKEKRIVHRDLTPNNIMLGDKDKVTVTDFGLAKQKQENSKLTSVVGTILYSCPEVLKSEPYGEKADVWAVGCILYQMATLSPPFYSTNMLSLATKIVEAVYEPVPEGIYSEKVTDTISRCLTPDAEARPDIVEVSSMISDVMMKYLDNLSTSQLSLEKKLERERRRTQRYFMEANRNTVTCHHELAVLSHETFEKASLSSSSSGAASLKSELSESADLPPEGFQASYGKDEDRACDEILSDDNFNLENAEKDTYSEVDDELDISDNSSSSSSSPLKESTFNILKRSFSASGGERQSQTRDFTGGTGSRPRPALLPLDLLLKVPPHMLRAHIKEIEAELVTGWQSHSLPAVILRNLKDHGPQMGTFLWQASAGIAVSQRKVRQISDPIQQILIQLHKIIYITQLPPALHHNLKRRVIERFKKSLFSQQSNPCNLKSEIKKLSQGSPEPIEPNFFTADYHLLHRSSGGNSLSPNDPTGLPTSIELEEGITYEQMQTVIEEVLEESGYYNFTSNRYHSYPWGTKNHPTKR
Sequence of NEK9 (Q8TD19 whole entry): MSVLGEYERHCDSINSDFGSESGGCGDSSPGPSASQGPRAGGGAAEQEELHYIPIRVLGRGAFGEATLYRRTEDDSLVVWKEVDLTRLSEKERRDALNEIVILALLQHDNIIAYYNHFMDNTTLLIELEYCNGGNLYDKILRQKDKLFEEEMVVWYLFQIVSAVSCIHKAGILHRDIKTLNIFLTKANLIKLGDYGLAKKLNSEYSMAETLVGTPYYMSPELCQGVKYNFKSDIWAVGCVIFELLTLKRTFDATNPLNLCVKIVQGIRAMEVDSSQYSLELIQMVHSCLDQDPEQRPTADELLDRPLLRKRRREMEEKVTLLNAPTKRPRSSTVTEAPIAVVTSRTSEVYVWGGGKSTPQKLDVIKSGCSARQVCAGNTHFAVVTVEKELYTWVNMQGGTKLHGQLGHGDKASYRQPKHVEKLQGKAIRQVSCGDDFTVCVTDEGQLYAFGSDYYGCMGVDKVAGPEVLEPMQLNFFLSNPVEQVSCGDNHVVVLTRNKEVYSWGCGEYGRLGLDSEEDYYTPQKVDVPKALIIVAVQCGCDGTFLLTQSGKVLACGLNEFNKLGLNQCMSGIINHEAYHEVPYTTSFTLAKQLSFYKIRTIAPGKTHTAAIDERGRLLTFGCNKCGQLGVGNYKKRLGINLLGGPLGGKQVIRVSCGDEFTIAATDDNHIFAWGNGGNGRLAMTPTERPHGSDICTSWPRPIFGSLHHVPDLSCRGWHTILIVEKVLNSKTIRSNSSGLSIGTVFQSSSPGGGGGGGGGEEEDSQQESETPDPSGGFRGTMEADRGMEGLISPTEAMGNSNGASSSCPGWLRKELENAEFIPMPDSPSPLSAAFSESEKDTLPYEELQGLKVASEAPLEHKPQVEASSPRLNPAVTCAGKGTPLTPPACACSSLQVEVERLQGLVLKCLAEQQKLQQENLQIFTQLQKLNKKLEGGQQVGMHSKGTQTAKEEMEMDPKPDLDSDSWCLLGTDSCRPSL
Sequence of SGK3 (Q96BR1 whole entry): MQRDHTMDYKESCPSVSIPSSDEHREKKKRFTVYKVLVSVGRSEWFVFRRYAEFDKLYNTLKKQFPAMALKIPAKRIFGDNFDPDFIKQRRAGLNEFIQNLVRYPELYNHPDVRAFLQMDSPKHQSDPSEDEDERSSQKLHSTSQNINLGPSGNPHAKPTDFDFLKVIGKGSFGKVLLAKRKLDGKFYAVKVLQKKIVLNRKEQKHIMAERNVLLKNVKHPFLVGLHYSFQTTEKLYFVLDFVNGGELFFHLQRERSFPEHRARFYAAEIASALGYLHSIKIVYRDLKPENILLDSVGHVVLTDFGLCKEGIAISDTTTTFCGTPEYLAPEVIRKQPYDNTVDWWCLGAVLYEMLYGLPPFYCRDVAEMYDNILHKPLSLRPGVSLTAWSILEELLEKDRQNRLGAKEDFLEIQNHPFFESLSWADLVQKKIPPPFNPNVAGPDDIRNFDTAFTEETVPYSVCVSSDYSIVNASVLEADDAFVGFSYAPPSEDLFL
T6 sequence (Q9UK32 whole entry): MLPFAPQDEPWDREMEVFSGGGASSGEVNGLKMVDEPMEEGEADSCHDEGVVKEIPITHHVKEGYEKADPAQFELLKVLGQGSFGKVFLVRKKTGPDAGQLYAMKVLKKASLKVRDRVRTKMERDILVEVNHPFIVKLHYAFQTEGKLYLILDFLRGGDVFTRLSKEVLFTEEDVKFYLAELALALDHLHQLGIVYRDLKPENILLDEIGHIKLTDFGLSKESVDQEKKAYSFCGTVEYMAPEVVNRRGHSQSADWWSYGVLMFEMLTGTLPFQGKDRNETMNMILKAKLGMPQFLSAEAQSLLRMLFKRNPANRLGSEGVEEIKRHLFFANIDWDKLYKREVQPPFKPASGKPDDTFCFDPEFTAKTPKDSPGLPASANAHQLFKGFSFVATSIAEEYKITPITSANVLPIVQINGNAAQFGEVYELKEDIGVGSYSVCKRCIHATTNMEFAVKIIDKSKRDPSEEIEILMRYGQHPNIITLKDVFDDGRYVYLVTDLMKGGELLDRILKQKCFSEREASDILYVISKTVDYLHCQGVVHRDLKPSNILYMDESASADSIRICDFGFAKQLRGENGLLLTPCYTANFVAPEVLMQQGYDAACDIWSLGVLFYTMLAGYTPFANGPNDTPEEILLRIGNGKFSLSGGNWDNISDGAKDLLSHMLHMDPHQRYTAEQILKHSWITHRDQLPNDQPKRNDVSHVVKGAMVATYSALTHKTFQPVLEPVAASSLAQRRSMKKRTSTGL
T8 sequence (Q02750 whole entry): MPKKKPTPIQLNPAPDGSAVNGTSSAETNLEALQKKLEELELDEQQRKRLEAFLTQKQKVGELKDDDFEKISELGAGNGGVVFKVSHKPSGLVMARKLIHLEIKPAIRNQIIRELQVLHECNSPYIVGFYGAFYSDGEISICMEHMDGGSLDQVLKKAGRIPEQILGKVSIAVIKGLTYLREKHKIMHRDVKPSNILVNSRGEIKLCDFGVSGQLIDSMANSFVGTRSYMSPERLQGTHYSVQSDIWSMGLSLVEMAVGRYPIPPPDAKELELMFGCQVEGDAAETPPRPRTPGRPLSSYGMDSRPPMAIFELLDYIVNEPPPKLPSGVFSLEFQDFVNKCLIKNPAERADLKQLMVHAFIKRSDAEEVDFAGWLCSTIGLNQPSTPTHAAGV

CNS(=O)(=O)c1ccc(N(C)C)c(Nc2ncnc3cc(OC)c(OC)cc23)c1 [compound 7, 3-((6,7-dimethoxyquinazolin-4-yl)amino)-4-(dimethylamino)-N-methylbenzenesulfonamide]
inhibition at 1 µM (EGFR(L747-T751del,Sins)): 0% | inhibition at 1 µM (NEK9): 0% | inhibition at 1 µM (NDR1): 0% | inhibition at 1 µM (MKK7): 42% | inhibition at 1 µM [1]: 13% | inhibition at 1 µM (SRPK2): 15% | inhibition at 1 µM [2]: 2% | inhibition at 1 µM (PHKG2): 0% | inhibition at 1 µM (PRKD1): 20% | inhibition at 1 µM (STK35): 0% | inhibition at 1 µM (SGK3): 1% | inhibition at 1 µM (MRCKA): 0% | inhibition at 1 µM (ABL2): 0% | inhibition at 1 µM [3]: 24% | inhibition at 1 µM (EPHB1): 0% | inhibition at 1 µM (EGFR(T790M)): 25% | inhibition at 1 µM (CAMK4): 0% | inhibition at 1 µM (KIT(L576P)): 49% | inhibition at 1 µM (CDC2L2): 0% | inhibition at 1 µM (TTK): 7% | inhibition at 1 µM (MEK1): 35% | inhibition at 1 µM (NEK10): 0% | inhibition at 1 µM (DMPK2): 0%
